# Experimental data taken from patent US11959929B2, “Method of quantifying lysergic acid diethylamide (LSD) and 2,3-dihydro-3-hydroxy-2-oxo lysergide (O-H-LSD) in human plasma” (Universitatsspital Basel, priority 2020, dated 2024).
# Values joined by “and” are separate entries in the source; they are usually repeats but may differ in a detail not shown here. Equal entries are not always repeated.
# Columns and labels:
# [1] = Freeze/thaw stability tests in human plasma (three cycles, about −20° C.); type: physicochemical; details: for Change in concentration [%]: 3 F/T cycles vs Baseline; for Accuracy: single QC replicate
# Description: (§1) Each analyte had to be stable in human plasma for at least three freeze-thaw cycles (for repeated sample preparations) and at ambient temperature for at least eight hours (maximal duration of sample preparation). Measured samples should be stable for a second injection when the first analytical run was not valid. The analytes had to be stable in the matrix at the intended storage temperatures and study duration.
# (§2) An analyte was considered stable at one of the above tests when no increase or decrease of the analyte concentration of more than 15% for the mean of at least three analyzed QC samples at low, medium and at high concentration was observed.
# Seven of each LLOQ, QCLOW, QCMID, QCHIGH, and ULOQ sample in human plasma were stored at about −20° C. for at least 24 hours and thawed unassisted at ambient temperature. When completely thawed, the samples were refrozen for at least 12 hours under the same conditions. The freeze-thaw cycle was repeated two more times. After the third cycle the samples were worked up and analyzed. The concentrations in the frozen and thawed samples were compared with freshly processed QC samples. Concentrations were calculated based on two freshly prepared CALs measured at the beginning and the other at the end of the validation run.
# [2] = Clinical application: plasma concentration-time profile of LSD and O-H-LSD after a single oral 5 μg LSD dose in healthy volunteers; type: in vivo, human; details: three healthy volunteers
# Protocol: To examine the application of the developed method, LSD and O-H-LSD concentrations were quantified in plasma samples of three healthy volunteers receiving a single oral dose of 5 μg. This corresponds to a very low LSD dose, used in LSD microdosing clinical trials (Holze et al., 2021a). The study was conducted in accordance with the Declaration of Helsinki and approved by the Medical Ethics Committee of the Academic Hospital of Maastricht and Maastricht University. The use of LSD in humans was authorized by the Dutch Drug Enforcement Administration. All volunteers provided written informed consent prior to study participation. To establish concentration time profiles, blood samples were collected in lithium heparin coated tubes at the following time points: 0, 0.5, 1, 1.5, 2, 3, 4, 6 after treatment. Blood samples were centrifuged, and plasma was frozen at −20° C. until analysis.
# The application of the method was assessed by analyzing the PK of LSD and O-H-LSD in three healthy volunteers treated with an oral dose of 5 μg LSD base (FIG. 5). An oral dose of 5 μg LSD base in ethanol (Holze et al., 2021) was administered to three healthy volunteers. Plasma concentrations of LSD and O-H-LSD were quantified before and up to six hours post-treatment. […] Mean values and the standard deviations are illustrated.
# The maximal plasma level of LSD and O-H-LSD was on average 178 pg/ml (SD: 30.6 pg/ml) and 10.4 pg/ml (SD: 2.59 pg/ml), respectively. LSD reached Tmax approximately after 1 hour post-treatment, whereas O-H-LSD peaked after 3 hours. The LSD concentrations measured after a dose of only 5 μg were approximately 7 to 18 times higher than the methods limit of quantification. Thus, the PK of LSD could straightforwardly be established also for very low so-called microdoses (Kuypers et al., 2019). In the case of O-H-LSD, a larger amount of plasma sample was required to determine the plasma concentration time profile after a dose of 5 μg. Three times more plasma was utilized (150 instead of 50 μl), which was extracted as outlined above using however three-fold more acetonitrile for the extraction. Sensitivity was increased by evaporating the extract and reconstituting the residue in a mixture of 150 μl of mobile phase A and mobile phase B (9/1 v/v). […] In future, it will also be considered to inject a larger amount of extract, which is in a first step retained and concentrated on a trapping column. In a second step, the direction of the flow is inverted and so that the sample can be loaded and eluted on the analytical column. This column switching procedure, will increase the sensitivity in the event that the sample can be retained on the trap column. Importantly, the time-consuming solvent evaporation step can thereby be avoided.
# [3] = Reinjection reproducibility of worked-up plasma samples (overnight at 10° C. in autosampler; 1 week at −20° C.); type: physicochemical, human; details: for Change in concentration: 1 night at 10° C. in the autosampler vs Baseline; for Change in concentration [%]: 8 days at −20° C. vs Baseline; for Accuracy: single QC replicate
# Description: as §1, §2
# Worked-up and measured Cal and QC samples (prepared in human plasma) of a valid run were repeatedly analyzed. Reinjection was performed after overnight storage at 10° C. (autosampler) and after 1-week storage at −20° C. The run was checked according to the acceptance criteria for validation runs. The calculated mean values for QC samples were compared between the original and reinjected run.
# [4] = QCHIGH: 1000 pg/ml, 3 F/T cycles
# [5] = ULOQ: 10000 pg/ml, 3 F/T cycles
# [6] = LLOQ: 10 pg/ml, reinjection after 8 days at −20° C.
# [7] = QCHIGH: 1000 pg/ml, reinjection after 8 days at −20° C.
# [8] = QCLOW: 25 pg/ml, reinjection after 8 days at −20° C.
# [9] = QCMID: 100 pg/ml, reinjection after 8 days at −20° C.
# [10] = ULOQ: 10000 pg/ml, reinjection after 8 days at −20° C.
smiles,measurement,setting,value
"CCN(CC)C(=O)[C@@H]1C=C2c3cccc4[nH]cc(c34)C[C@H]2N(C)C1 [LSD, Lysergic acid diethylamide]","Accuracy, Intra-assay Mean","[1]; LLOQ: 10 pg/ml, 3 F/T cycles",83.7%
same,Change in concentration [%],[1]; LLOQ: 10 pg/ml,−8.83%
same,Accuracy,"[1]; LLOQ: 10 pg/ml, 3 F/T cycles",81.9% and 75.0* % and 81.7% and 84.7% and 79.8* % and 81.8% and 88.5%
same,"Accuracy, Intra-assay Mean","[1]; LLOQ: 10 pg/ml, Baseline",91.8%
same,Accuracy,"[1]; LLOQ: 10 pg/ml, Baseline",96.6% and 95.7% and 83.2%
same,"Accuracy, Intra-assay Mean",[1]; [4],96.5%
same,Change in concentration [%],[1]; QCHIGH: 1000 pg/ml,0.647%
same,Accuracy,[1]; [4],96.4% and 96.2% (2×) and 96.9% and 96.7% and 94.6% and 98.3%
same,"Accuracy, Intra-assay Mean","[1]; QCHIGH: 1000 pg/ml, Baseline",95.9%
same,Accuracy,"[1]; QCHIGH: 1000 pg/ml, Baseline",96.9% and 96.4% and 94.3%
same,"Accuracy, Intra-assay Mean","[1]; QCLOW: 25 pg/ml, 3 F/T cycles",96.7%
same,Change in concentration [%],[1]; QCLOW: 25 pg/ml,4.44%
same,Accuracy,"[1]; QCLOW: 25 pg/ml, 3 F/T cycles",95.2% and 102% and 101% and 91.5% and 98.8% and 93.6% and 94.9%
same,"Accuracy, Intra-assay Mean","[1]; QCLOW: 25 pg/ml, Baseline",92.6%
same,Accuracy,"[1]; QCLOW: 25 pg/ml, Baseline",94% and 93.4% and 90.5%
same,"Accuracy, Intra-assay Mean","[1]; QCMID: 100 pg/ml, 3 F/T cycles",98.5%
same,Change in concentration [%],[1]; QCMID: 100 pg/ml,1.03%
same,Accuracy,"[1]; QCMID: 100 pg/ml, 3 F/T cycles",99.2% and 97.9% and 99.5% and 99.6% and 94.9% and 98% and 100%
same,"Accuracy, Intra-assay Mean","[1]; QCMID: 100 pg/ml, Baseline",97.5%
same,Accuracy,"[1]; QCMID: 100 pg/ml, Baseline",101% and 94.3% and 97.4%
same,"Accuracy, Intra-assay Mean",[1]; [5],95.7%
same,Change in concentration [%],[1]; ULOQ: 10000 pg/ml,−0.9%
same,Accuracy,[1]; [5],97.8% and 94.3% and 94% and 96.4% and 99.2% and 93% and 95.2%
same,"Accuracy, Intra-assay Mean","[1]; ULOQ: 10000 pg/ml, Baseline",96.6%
same,Accuracy,"[1]; ULOQ: 10000 pg/ml, Baseline",94.7% and 94.9% and 100%
same,Change in plasma concentration following three freeze/thaw cycles,"[1]; human plasma QC samples, −20° C., three freeze/thaw cycles, vs freshly processed QC",≤ 8.83%
same,Tmax,"[2]; human, 5 ug, single oral dose of 5 μg LSD base, read-out: Tmax (time of peak plasma level post-treatment)",~1 h
same,maximal plasma level (average),"[2]; single oral dose of 5 μg LSD base in ethanol, LC-MS/MS, O-H-LSD measured as metabolite using 150 μl plasma",178 pg/mL
same,Change in concentration,[3]; LLOQ: 10 pg/ml,1.09%
same,Change in concentration,[3]; QCHIGH: 1000 pg/ml,−0.451%
same,Change in concentration,[3]; QCLOW: 25 pg/ml,−0.0195%
same,Change in concentration,[3]; QCMID: 100 pg/ml,2.3%
same,Change in concentration,[3]; ULOQ: 10000 pg/ml,0.383%
same,Change in concentration [%],[3]; LLOQ: 10 pg/ml,−1.26%
same,"Accuracy, Intra-assay Mean","[3]; LLOQ: 10 pg/ml, Baseline",96.6%
same,Accuracy,"[3]; LLOQ: 10 pg/ml, Baseline",92.5% and 95% and 76.3* % and 91.3% and 98% and 109% and 93.7%
same,"Accuracy, Intra-assay Mean",[3]; [6],95.4%
same,Accuracy,[3]; [6],104% and 97.5% and 86% and 95.3% and 100% and 94.7% and 90.3%
same,Change in concentration [%],[3]; QCHIGH: 1000 pg/ml,−0.333%
same,"Accuracy, Intra-assay Mean","[3]; QCHIGH: 1000 pg/ml, Baseline",100%
same,Accuracy,"[3]; QCHIGH: 1000 pg/ml, Baseline",96.5% and 99.5% and 97.7% and 101% (3×) and 103%
same,"Accuracy, Intra-assay Mean",[3]; [7],99.7%
same,Accuracy,[3]; [7],101% (2×) and 98.8% and 98.9% and 99.9% and 99.1% and 99.6%
same,Change in concentration [%],[3]; QCLOW: 25 pg/ml,−0.948%
same,"Accuracy, Intra-assay Mean","[3]; QCLOW: 25 pg/ml, Baseline",101%
same,Accuracy,"[3]; QCLOW: 25 pg/ml, Baseline",101% (2×) and 104% and 97.9% and 102% and 103% and 99.5%
same,"Accuracy, Intra-assay Mean",[3]; [8],100%
same,Accuracy,[3]; [8],95.5% and 102% and 107% and 96.4% and 106% and 92% and 103%
same,Change in concentration [%],[3]; QCMID: 100 pg/ml,1.02%
same,"Accuracy, Intra-assay Mean","[3]; QCMID: 100 pg/ml, Baseline",101%
same,Accuracy,"[3]; QCMID: 100 pg/ml, Baseline",101% (4×) and 102% and 96.6% and 107%
same,"Accuracy, Intra-assay Mean",[3]; [9],102%
same,Accuracy,[3]; [9],101% and 103% (2×) and 102% (2×) and 99.9% and 105%
same,Change in concentration [%],[3]; ULOQ: 10000 pg/ml,−1.85%
same,"Accuracy, Intra-assay Mean","[3]; ULOQ: 10000 pg/ml, Baseline",97.2%
same,Accuracy,"[3]; ULOQ: 10000 pg/ml, Baseline",97.9% and 97.3% and 98.1% and 96.5% and 97.1% and 98.7% and 95%
same,"Accuracy, Intra-assay Mean",[3]; [10],95.4%
same,Accuracy,[3]; [10],97.4% and 96.6% and 95.2% and 92.9% and 95.1% and 96.4% and 94.2%
same,Deviations of the means of the QCs of the two runs (reinjection) after 8 days at −20° C.,"[3]; worked-up human plasma samples, 8 days at −20° C.",−1.85% to +1.02
same,Deviations of the means of the QCs of the two runs (reinjection) after overnight storage at 10° C.,"[3]; worked-up human plasma samples, overnight at 10° C. in the autosampler",−0.451% to +2.3
